The values below come from PMC12693419, “Design, Synthesis, Biological Evaluation, and In Silico Studies of Novel Multitarget Cinnamic Acid Hybrids” (Molecules, 2025).

The nature of series [1]: In vitro inhibition of linoleic acid lipid peroxidation (AAPH). The note with it: 100 μM; anti-lipid peroxidation. The text has this:
In the present study, the aim was to evaluate the anti-lipid peroxidation activities of the synthesized compounds 5a–i, 6a–i, 9a–i, and 11 and compare their efficacy to that of Trolox, a well-known antioxidant. Using the water-soluble compound 2,2′-azobis(2-amidinopropane) hydrochloride (AAPH), peroxyl radicals are generated through spontaneous thermal decomposition in vitro. This experimental setup imitated the lipid peroxidation processes occurring in cells due to radical activity allowing the investigation of the effectiveness of the tested compounds under conditions resembling cellular oxidative stress.
An in vitro assay was performed following previously established protocols. The compound 2,2′-Azobis(2-methylpropionamidine) dihydrochloride (AAPH) was used as a controlled source of thermally generated alkylperoxy free radicals. The formation of conjugated diene hydroperoxides through the oxidation of sodium linoleate in an aqueous dispersion at 37 °C was measured by monitoring absorbance at 234 nm. The results were compared with the reference compound, Trolox (93%) (Table 6).

For a further series, the target named is T1, ovine COX-2 (Ovis aries, UniProt P79208).
T1 sequence (P79208 17-603): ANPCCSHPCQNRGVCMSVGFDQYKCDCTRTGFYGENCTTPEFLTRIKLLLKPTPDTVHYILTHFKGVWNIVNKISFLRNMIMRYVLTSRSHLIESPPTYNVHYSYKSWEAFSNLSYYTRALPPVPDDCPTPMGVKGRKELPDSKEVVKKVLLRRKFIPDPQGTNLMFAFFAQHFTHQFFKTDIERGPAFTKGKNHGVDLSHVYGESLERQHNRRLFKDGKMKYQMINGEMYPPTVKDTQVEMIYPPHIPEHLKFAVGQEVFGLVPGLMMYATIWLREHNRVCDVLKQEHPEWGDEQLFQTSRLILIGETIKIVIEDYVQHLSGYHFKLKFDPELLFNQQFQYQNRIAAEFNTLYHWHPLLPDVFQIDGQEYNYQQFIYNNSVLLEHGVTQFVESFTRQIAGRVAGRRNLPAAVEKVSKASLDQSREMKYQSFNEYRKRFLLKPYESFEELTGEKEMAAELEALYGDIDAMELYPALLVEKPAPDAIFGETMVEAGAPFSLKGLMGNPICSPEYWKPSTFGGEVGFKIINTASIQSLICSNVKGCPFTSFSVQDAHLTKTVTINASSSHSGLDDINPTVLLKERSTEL
Briefly: In vitro inhibition of ovine cyclooxygenase-2.

For series [2], the target named is T2, soybean lipoxygenase isoenzyme-1 (SLOX-1) (Glycine max, UniProt P08170).
T2 construct: purchased Merck and Sigma-Aldrich
T2 sequence (P08170 1-839): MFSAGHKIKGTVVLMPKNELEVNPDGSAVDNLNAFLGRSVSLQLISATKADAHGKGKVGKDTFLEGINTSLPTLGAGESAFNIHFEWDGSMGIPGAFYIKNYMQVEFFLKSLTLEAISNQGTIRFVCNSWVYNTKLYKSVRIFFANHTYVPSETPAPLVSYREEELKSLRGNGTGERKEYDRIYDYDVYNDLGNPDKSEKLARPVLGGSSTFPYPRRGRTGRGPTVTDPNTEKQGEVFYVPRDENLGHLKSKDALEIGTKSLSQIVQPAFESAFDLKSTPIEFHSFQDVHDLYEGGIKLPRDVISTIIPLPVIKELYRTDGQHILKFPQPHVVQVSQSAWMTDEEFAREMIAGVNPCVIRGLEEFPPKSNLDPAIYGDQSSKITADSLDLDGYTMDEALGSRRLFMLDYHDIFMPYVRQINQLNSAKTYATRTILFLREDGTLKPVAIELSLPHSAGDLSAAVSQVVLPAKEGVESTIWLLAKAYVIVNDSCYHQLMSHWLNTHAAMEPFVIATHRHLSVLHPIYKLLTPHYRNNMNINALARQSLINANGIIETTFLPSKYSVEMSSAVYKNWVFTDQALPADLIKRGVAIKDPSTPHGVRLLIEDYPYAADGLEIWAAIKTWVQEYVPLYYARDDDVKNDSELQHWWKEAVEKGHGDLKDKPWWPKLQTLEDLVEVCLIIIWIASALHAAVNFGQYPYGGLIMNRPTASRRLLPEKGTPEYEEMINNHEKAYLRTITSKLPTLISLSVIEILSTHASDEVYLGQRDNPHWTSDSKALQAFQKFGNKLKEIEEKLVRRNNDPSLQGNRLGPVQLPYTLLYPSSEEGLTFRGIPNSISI
Briefly: In vitro inhibition of soybean lipoxygenase. The note with it: for LOX Inh. IC50: pH 9.0; for IC50: pH 9.0, read-out: LOX Inh. IC50. It is filed as biochemical. The procedure:
In vitro anti-LOX activities were evaluated using soybean lipoxygenase isoenzyme-1 (SLOX-1), a commonly used model for mammalian LOXs.
An in vitro study was conducted following a previously reported method. The tested compounds were dissolved in DMSO (100 µM) and incubated at room temperature with 0.1 mL of sodium linoleate as the substrate and 0.2 mL of soybean lipoxygenase solution in Tris-HCl buffer (pH 9.0).

Series [3] can be described thus: In vitro determination of NO release with Griess reagent. The note with it: 100 μM, L-cysteine, pH 7.4, 37 °C, 60 min. The text has this:
This assay evaluates the ability of nitrate esters to release nitric oxide (NO). First, sodium nitroprusside (SNP) reacts with the thiol compound, cysteine, which serves as a reducing agent (Scheme 5). The thiol donates electrons, facilitating the breakdown of the nitroprusside complex. Afterwards, the reaction leads to the formation of intermediate complexes, such as nitrosothiol species and the decomposition of these intermediates results in the release of nitric oxide (NO). According to the literature, measurements are conducted both in the presence and absence of the thiol agent, cysteine. No significant difference was observed between the two experimental conditions, and the results were reproducible. Sodium nitroprusside (SNP) was used as the reference compound [65].
The compounds (from a 10 mM stock solution in DMSO, final concentration 100 μM) are added (20 μL) to each test tube. Then, 2 mL of phosphate buffer solution (pH 7.4) is added. L-cysteine, used as the thiol agent, is added to the mixture at a final concentration of 0.5 mM. The solution is incubated at 37 °C for 60 min, after which 1 mL is removed and mixed with 250 μL of Griess reagent (4 g sulfanilamide, 0.2 g N-(1-naphthyl)-ethylenediamine dihydrochloride, and 10 mL of H3PO4 solution, final volume adjusted to 100 mL). The mixture is allowed to stand for 10 min at room temperature, and the absorbance of the produced compound is measured at 540 nm. Sodium nitroprusside (SNP) is used as the reference compound. The results are presented as the release of NO2^− (% NO2^− (mol/mol)) induced by the compounds in the presence of L-cysteine (Table 6).
A general note: The Griess reaction detects nitrite, a stable product of nitric oxide.

The target of another series is T3, bovine serum albumin (Bos taurus, UniProt P02769).
T3 construct: bovine serum albumin solution (fraction V); purchased Merck and Sigma-Aldrich; host or cells: bovine serum (fraction V)
T3 sequence (P02769 25-607): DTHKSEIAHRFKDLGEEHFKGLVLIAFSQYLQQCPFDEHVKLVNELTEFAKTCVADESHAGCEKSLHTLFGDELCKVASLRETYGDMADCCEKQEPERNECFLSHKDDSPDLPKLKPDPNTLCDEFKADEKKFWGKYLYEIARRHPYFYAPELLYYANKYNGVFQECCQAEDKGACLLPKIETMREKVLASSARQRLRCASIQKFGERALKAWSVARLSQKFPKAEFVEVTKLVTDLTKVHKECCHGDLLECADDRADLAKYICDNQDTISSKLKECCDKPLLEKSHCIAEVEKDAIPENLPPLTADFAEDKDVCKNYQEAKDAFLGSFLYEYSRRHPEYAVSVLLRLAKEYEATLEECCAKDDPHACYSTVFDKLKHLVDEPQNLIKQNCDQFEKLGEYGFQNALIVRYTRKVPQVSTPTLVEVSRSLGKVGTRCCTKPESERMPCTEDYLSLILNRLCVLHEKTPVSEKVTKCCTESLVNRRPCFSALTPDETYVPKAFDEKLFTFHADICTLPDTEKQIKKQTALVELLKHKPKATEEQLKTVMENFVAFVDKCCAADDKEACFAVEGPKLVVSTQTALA
Briefly: In vitro inhibition of albumin denaturation. The settings on record: heat denaturation, 60 °C 10 min. As to the method: The ability of a compound to inhibit the thermal denaturation of albumin is considered an indicator of anti-inflammatory activity. Heat exposure simulates conditions of cellular stress or inflammation, during which protein and tissue damage occur. Certain substances can protect proteins from denaturation upon heating by stabilizing their structure and preventing aggregation and precipitation.
Inhibition of albumin denaturation was measured following the reported method. In a test tube, 1 mL of bovine serum albumin solution (fraction V, 1% w/v in phosphate buffer, pH 7.4) and 100 μL of the test compound solution were added sequentially. The mixture was incubated at 37 °C for 15 min, followed by heating at 60 °C for 10 min. After cooling to room temperature, the absorbance was measured at 660 nm. DMSO was used as the blank, and the results were compared to acetylsalicylic acid, which served as the reference compound (Table 6).

Experimental for ovine COX-2: In order to prevent this in the in vitro experiment used for testing COX inhibition activity of the new molecules, a co-substrate like N,N,N′,N′-tetramethyl-p-phenylenediamine (TMPD) is included, as it undergoes co-oxidation by PGG2. The oxidized TMPD has a maximum absorbance at 590 nm. […] To ensure maximum enzyme activity, heme is added to the reaction mixture during the in vitro assay for ovine COX-2 inhibition and COX-1 inhibition [63].
The in vitro COX-2 inhibitory activity was assessed using arachidonic acid (AA) as a substrate and N,N,N′,N′-tetramethyl-p-phenylenediamine (TMPD) as a co-substrate in a Tris-HCl buffer (pH 8.5), following the reported method [89]. To the test tube, 10 µL of the compound dissolved in DMSO was added to a mixture containing 730 µL of Tris-HCl buffer (pH 8.5), 50 µL of heme, 10 µL of COX-2 enzyme, and 100 µL of TMPD. The absorbance was measured at 590 nm. […] A blank determination was conducted as a negative control.

As to `O=C(C=Cc1ccccc1)OCCOc1no[n+]([O-])c1S(=O)(=O)c1ccccc1` [Compound 11, 4-(2-(Cinnamoyloxy)ethoxy)-3-(phenylsulfonyl)-1,2,5-oxadiazole 2-oxide], in series [1], the “AAPH Inh. at 100 μΜ” value is 90%. Further, the “COX-2 Inh. IC50” value on ovine COX-2 is “no”. The “LOX Inh. IC50” value in series [2] is “complete loss of activity and no”. Moreover, the “%NO2^− Release mol/mol at 100 μΜ” value in series [3] is listed as 11%. For the same molecule, on bovine serum albumin, the “Albumin (inhibition of albumin denaturation)” value is reported as “no”.

For `C/C(=N\O)c1ccc(NC(=O)COC(=O)/C=C/c2ccco2)cc1` [Compound 6d, 2-((4-((E)-1-(Hydroxyimino)ethyl)phenyl)amino)-2-oxoethyl (E)-3-(furan-2-yl)acrylate], the “AAPH Inh. at 100 μΜ” value in series [1] amounted to 54%. Moreover, on ovine COX-2, the “COX-2 Inh. IC50” value is “no”. In series [2], the “LOX Inh. IC50” value was “no”. In addition, in series [3], the “%NO2^− Release mol/mol at 100 μΜ” value turned out to be 0.2%. For the same molecule, the “Albumin (inhibition of albumin denaturation)” value on bovine serum albumin came to 10%.

With `O=C(O)/C=C/c1ccccc1` [Cinnamic acid], the “AAPH Inh. at 100 μΜ” value in series [1] worked out at 78%.

Usually IC50 stands for the concentration that gives 50% inhibition. Take `CC(=O)c1ccc(NC(=O)COC(=O)/C=C/c2cc3ccccc3o2)cc1` [Compound 5f, 2-((4-Acetylphenyl)amino)-2-oxoethyl (E)-3-(benzofuran-2-yl)acrylate]: in series [1], the “AAPH Inh. at 100 μΜ” value is 39%. The concentration for half-maximal inhibition (IC50) in series [2] turned out to be 80 µM.

For the molecule `C/C(=N\O)c1ccc(NC(=O)COC(=O)/C(=C/c2ccccc2)c2ccccc2)cc1` [Compound 6g, 2-((4-((E)-1-(Hydroxyimino)ethyl)phenyl)amino)-2-oxoethyl (E)-2,3-diphenylacrylate], the “AAPH Inh. at 100 μΜ” value in series [1] is listed as 89%. Moreover, the IC50 in series [2] is 44 µM. For the same molecule, the “%NO2^− Release mol/mol at 100 μΜ” value in series [3] is “no activity and no”. Further, the “Albumin (inhibition of albumin denaturation)” value at bovine serum albumin is given as “no”.

For the molecule `CC(=O)c1ccc(NC(=O)COC(=O)/C=C/c2cccc3ccccc23)cc1` [Compound 5b, 2-((4-Acetylphenyl)amino)-2-oxoethyl (E)-3-(naphthalen-1-yl)acrylate], the “AAPH Inh. at 100 μΜ” value in series [1] was “inactive and no”. Further, in series [2], the concentration for half-maximal inhibition (IC50) was found to be 57.5 µM.

Regarding `CC(=O)c1ccc(NC(=O)COC(=O)/C(=C/c2cccc3ccccc23)c2ccccc2)cc1` [Compound 5h, 2-((4-Acetylphenyl)amino)-2-oxoethyl (E)-3-(naphthalen-1-yl)-2-phenylacrylate], the “AAPH Inh. at 100 μΜ” value in series [1] was 75.8%. Besides, in series [2], the IC50 amounted to 33 µM.

Turning to `CC(=O)c1ccc(NC(=O)COC(=O)/C=C/c2cc3ccccc3s2)cc1` [Compound 5e, 2-((4-Acetylphenyl)amino)-2-oxoethyl (E)-3-(benzo[b]thiophen-2-yl)acrylate], in series [1], the “AAPH Inh. at 100 μΜ” value is on record as “no”. In addition, in series [2], the “LOX Inh. IC50” value is recorded as “no”.

For `C/C(=N\O)c1ccc(NC(=O)COC(=O)/C(=C/c2cccc3ccccc23)c2ccccc2)cc1` [Compound 6h, 2-((4-((E)-1-(Hydroxyimino)ethyl)phenyl)amino)-2-oxoethyl (E)-3-(naphthalen-1-yl)-2-phenylacrylate], the “AAPH Inh. at 100 μΜ” value in series [1] is 97.7%. Also, the IC50 in series [2] worked out at 62.5 µM. For the same molecule, the “%NO2^− Release mol/mol at 100 μΜ” value in series [3] is “no activity and no”. Besides, the “Albumin (inhibition of albumin denaturation)” value at bovine serum albumin is reported as “no”.

For `CC(=O)c1ccc(NC(=O)COC(=O)C=Cc2ccccc2)cc1` [Compound 5a, 2-((4-Acetylphenyl)amino)-2-oxoethyl Cinnamate], in series [1], the “AAPH Inh. at 100 μΜ” value is 31.9%. Further, the “LOX Inh. IC50” value in series [2] is “no”.

Regarding `CC(=O)c1ccc(NC(=O)COC(=O)/C=C/c2cccs2)cc1` [Compound 5c, 2-((4-Acetylphenyl)amino)-2-oxoethyl (E)-3-(thiophen-2-yl)acrylate], in series [1], the “AAPH Inh. at 100 μΜ” value came out at 29%. Besides, the “LOX Inh. IC50” value in series [2] was “no”.

For the molecule `CC(=O)c1ccc(NC(=O)COC(=O)/C(=C/c2ccccc2)c2ccccc2)cc1` [Compound 5g, 2-((4-Acetylphenyl)amino)-2-oxoethyl (E)-2,3-diphenylacrylate], the “AAPH Inh. at 100 μΜ” value in series [1] is 94.7%. In addition, in series [2], the “LOX Inh. IC50” value is reported as “no”.

In the case of `CC(=O)c1ccc(NC(=O)COC(=O)/C(=C/c2cccs2)c2ccccc2)cc1` [Compound 5i, 2-((4-Acetylphenyl)amino)-2-oxoethyl (E)-2-phenyl-3-(thiophen-2-yl)acrylate], the “AAPH Inh. at 100 μΜ” value in series [1] is 77%. Further, the “LOX Inh. IC50” value in series [2] is on record as “no”.

In the case of `CC(=O)Oc1ccccc1C(=O)O` [Acetylsalicylic acid, acetylsalicylic acid, reference compound], at bovine serum albumin, the “Albumin (inhibition of albumin denaturation)” value worked out at 31%.

`Cc1c(C)c2c(c(C)c1O)CCC(C)(C(=O)O)O2` (stereo not drawn) [Trolox, reference compound]: the “AAPH Inh. at 100 μΜ” value in series [1] is recorded as 93%.

As for `CC(=O)c1ccc(NC(=O)COC(=O)/C=C/c2ccco2)cc1` [Compound 5d, 2-((4-Acetylphenyl)amino)-2-oxoethyl (E)-3-(furan-2-yl)acrylate], the “AAPH Inh. at 100 μΜ” value in series [1] was “no”. For the same molecule, in series [2], the “LOX Inh. IC50” value is recorded as “no”.
